According to patent publication US12503438B2, “Compounds for the treatment of kinase-dependent disorders” (Exelixis, Inc., priority 2019, dated 2025):

How the values were obtained:
KDR = KDR (Homo sapiens, UniProt P35968); experiment: KDR autophosphorylation ELISA in HUVEC cells; type: cell-based; set-up: endogenous in cells; host or cells: HUVEC (Lonza #C2519A); settings: cellular activity, VEGF165-stimulated, phospho-KDR ELISA
How it was run: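 Inhibition of VEGF165-induced KDR phosphorylation was determined in serum-starved HUVEC after 1 h compound pretreatment and 5 min stimulation with 100 ng/mL VEGF165. Lysate phospho-KDR was measured by ELISA; IC50 values came from a 4-parameter logistic fit of 8-point curves.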

Human Axl = molecular target: T1, Human Axl (Homo sapiens, UniProt P30530, Q764R); experiment: Human AXL kinase assay (33P-phosphoryl transfer radiometric, KinaseProfiler); settings: biochemical activity; 10 μM ATP
T1 construct: Human Axl (residues H473-A894 with Q764R, 161 nM); purchased Eurofins Pharma Discovery Services UK Limited (KinaseProfiler service)
T1 sequence (P30530 473-894 Q764R): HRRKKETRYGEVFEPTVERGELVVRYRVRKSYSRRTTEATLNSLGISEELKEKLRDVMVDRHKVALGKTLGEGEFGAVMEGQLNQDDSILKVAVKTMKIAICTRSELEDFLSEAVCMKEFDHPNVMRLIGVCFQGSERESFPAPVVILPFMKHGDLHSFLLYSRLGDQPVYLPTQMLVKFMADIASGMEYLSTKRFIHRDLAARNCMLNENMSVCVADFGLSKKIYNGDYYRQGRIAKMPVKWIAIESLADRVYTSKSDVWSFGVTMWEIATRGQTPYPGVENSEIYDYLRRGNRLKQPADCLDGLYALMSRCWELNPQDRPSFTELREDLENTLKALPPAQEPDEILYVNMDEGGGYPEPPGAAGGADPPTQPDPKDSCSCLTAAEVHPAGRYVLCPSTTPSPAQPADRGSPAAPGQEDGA

Chain of KDR (P35968 20-1356): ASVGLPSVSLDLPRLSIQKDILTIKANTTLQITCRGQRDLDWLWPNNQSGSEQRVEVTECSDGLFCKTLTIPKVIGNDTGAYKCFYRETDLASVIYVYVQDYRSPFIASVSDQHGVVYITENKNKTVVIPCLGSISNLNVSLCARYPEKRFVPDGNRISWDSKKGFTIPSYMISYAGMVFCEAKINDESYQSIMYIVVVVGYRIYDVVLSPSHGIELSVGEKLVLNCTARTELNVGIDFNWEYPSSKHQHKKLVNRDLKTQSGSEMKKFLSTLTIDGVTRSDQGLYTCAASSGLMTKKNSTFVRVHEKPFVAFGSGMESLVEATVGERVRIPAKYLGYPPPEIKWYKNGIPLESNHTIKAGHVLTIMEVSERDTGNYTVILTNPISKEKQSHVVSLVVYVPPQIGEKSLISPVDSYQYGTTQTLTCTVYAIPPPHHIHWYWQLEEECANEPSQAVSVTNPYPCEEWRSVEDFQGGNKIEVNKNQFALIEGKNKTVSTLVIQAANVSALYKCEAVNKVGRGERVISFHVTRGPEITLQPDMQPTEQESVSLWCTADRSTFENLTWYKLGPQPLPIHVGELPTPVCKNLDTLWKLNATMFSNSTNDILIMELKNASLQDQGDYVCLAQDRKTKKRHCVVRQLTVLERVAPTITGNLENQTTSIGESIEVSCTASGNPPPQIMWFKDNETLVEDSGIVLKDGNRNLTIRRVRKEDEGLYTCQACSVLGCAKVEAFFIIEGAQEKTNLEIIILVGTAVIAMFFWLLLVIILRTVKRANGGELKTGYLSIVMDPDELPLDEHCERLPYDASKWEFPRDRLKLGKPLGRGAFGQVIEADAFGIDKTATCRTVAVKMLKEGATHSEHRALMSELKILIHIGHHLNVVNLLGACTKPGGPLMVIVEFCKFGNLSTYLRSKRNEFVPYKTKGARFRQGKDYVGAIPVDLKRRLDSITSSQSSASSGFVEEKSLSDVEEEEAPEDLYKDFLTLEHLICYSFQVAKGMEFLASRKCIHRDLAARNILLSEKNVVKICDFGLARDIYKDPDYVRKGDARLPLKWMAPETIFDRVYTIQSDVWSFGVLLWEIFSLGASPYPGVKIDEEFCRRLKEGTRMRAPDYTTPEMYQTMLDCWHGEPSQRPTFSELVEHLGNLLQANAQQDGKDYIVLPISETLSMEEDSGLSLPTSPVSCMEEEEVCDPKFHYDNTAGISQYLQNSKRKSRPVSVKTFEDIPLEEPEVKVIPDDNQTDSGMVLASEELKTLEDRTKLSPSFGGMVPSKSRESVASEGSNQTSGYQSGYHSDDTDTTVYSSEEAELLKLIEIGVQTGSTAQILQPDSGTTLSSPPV

Compound | IC50 (KDR) [nM] | IC50 (Human Axl) [nM]
COCCn1cc(-c2ccc3c(Oc4ccc(NC(=O)C5(C(=O)Nc6ccc(F)cc6)CC5)cc4)ccnc3c2)cn1 [Compound 10, 1-N′-(4-Fluorophenyl)-1-N-[4-[7-[1-(2-methoxyethyl)pyrazol-4-yl]quinolin-4-yl]oxyphenyl]cyclopropane-1,1-dicarboxamide] | 10 to 100 | ≤ 10
O=C(Nc1ccc(F)cc1)C1(C(=O)Nc2ccc(Oc3ccnc4cc(-c5ccnnc5)ccc34)cc2)CC1 [Compound 28, 1-N′-(4-Fluorophenyl)-1-N-[4-(7-pyridazin-4-ylquinolin-4-yl)oxyphenyl]cyclopropane-1,1-dicarboxamide] | 10 to 100 | 10 to 100
O=C(Nc1ccc(F)cc1)C1(C(=O)Nc2ccc(Oc3ccnc4cc(-c5ncco5)ccc34)cc2)CC1 [Compound 66, 1-N′-(4-Fluorophenyl)-1-N-[4-[7-(1,3-oxazol-2-yl)quinolin-4-yl]oxyphenyl]cyclopropane-1,1-dicarboxamide] | 10 to 100 | 10 to 100
O=C(Nc1ccc(F)cc1)C1(C(=O)Nc2ccc(Oc3ccnc4cc(-c5cnn(CC(F)F)c5)ccc34)cc2)CC1 [Compound 15, 1-N-[4-[7-[1-(2,2-Difluoroethyl)pyrazol-4-yl]quinolin-4-yl]oxyphenyl]-1-N′-(4-fluorophenyl)cyclopropane-1,1-dicarboxamide] | 10 to 100 | ≤ 10
O=C(Nc1ccc(F)cc1)C1(C(=O)Nc2ccc(Oc3ccnc4cc(-c5ccn(C(F)F)n5)ccc34)cc2)CC1 [Compound 84, 1-N-[4-[7-[1-(Difluoromethyl)pyrazol-3-yl]quinolin-4-yl]oxyphenyl]-1-N′-(4-fluorophenyl)cyclopropane-1,1-dicarboxamide] | 10 to 100 | 10 to 100
